Reference: the supplement of paper PMC10307832

Legend:
Assay in all cases: relative viability (nuclei count vs DMSO), 5 days (fraction); higher = more cells survive
[1] = compound: c1ccc2c(CCNc3ccc(Nc4ccncc4)cc3)c[nH]c2c1 [Serdemetan] + COc1cc2c(Oc3ccc(NC(=O)C4(C(=O)Nc5ccc(F)cc5)CC4)cc3F)ccnc2cc1OCCCN1CCOCC1 [Foretinib] (partner 0.25 µM)
In short: (§1)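 Lung cancer cell lines were seeded in 1536-well plates and dosed by pin tool the next day, with either a single drug or a fixed anchor-drug dose combined with five library-drug doses (not always all listed) spaced in √10 steps. Five days later, one step fixed the cells and stained their nuclei (final 0.05% Triton X-100, 1% formaldehyde, 1 ug/ml Hoechst), and nuclei were counted on 4× images. Relative viability is the nuclei count in treated wells divided by the count in vehicle wells, and each value is the median of duplicate plates.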

[2] = compound: c1ccc2c(CCNc3ccc(Nc4ccncc4)cc3)c[nH]c2c1 [Serdemetan] + CC(=O)Nc1cccc(-n2c(=O)n(C3CC3)c(=O)c3c(Nc4ccc(I)cc4F)n(C)c(=O)c(C)c32)c1 [Trametinib] (partner 0.02 µM)
In short: as §1

[3] = compound: C1CC(C2=C(C1)C3=C(N2)C=CC(=C3)Cl)C(=O)N [Selisistat] + Cc1nc(Nc2ncc(C(=O)Nc3c(C)cccc3Cl)s2)cc(N2CCN(CCO)CC2)n1 [Dasatinib] (partner 0.075 µM)
In short: as §1

[4] = compound: C1CC(C2=C(C1)C3=C(N2)C=CC(=C3)Cl)C(=O)N [Selisistat] + CC(C)C[C@H](NC(=O)[C@H](Cc1ccccc1)NC(=O)c1cnccn1)B(O)O [Bortezomib] (partner 0.002 µM)
In short: as §1

Cell Line	relative viability ([1]; first compound 0.04 µM)	relative viability ([1]; first compound 0.1265 µM)	relative viability ([1]; first compound 0.4 µM)	relative viability ([1]; first compound 4 µM)	relative viability ([2]; first compound 0.04 µM)	relative viability ([2]; first compound 0.1265 µM)	relative viability ([2]; first compound 0.4 µM)	relative viability ([2]; first compound 1.265 µM)	relative viability ([2]; first compound 4 µM)	relative viability ([3]; first compound 0.4 µM)	relative viability ([3]; first compound 1.265 µM)	relative viability ([3]; first compound 4 µM)	relative viability ([3]; first compound 12.65 µM)	relative viability ([3]; first compound 40 µM)	relative viability ([4]; first compound 0.4 µM)	relative viability ([4]; first compound 4 µM)	relative viability ([4]; first compound 12.65 µM)	relative viability ([4]; first compound 40 µM)	relative viability ([1]; first compound 1.265 µM)	relative viability ([4]; first compound 1.265 µM)
SK-LU-1	0.767	0.745	0.77	0.61	0.485	0.464	0.444	0.332	0.44	0.166	0.176	0.186	0.191	0.184	1.23	1.27	0.998	1.75		
ChaGo-K-1	0.9	0.703	0.566	0.296	0.875	0.805	0.602	0.266	0.293	0.562	0.551	0.563	0.539	0.592	0.972		0.917	0.821	0.335	1.03
NCI-H1650	1	1.21	0.989	0.658	0.58	0.633	0.49	0.611	0.516	0.298	0.297	0.295	0.286	0.313	0.281	0.222	0.202	0.22	1.14	0.205
NCI-H2009	1.18	1.14	1.16	0.887	0.248	0.284	0.243	0.266	0.281	0.323	0.267	0.208	0.239	0.241	1.01	0.583	0.921	0.997	1.14	1.06
LOU-NH91	0.928	0.927	0.63	0.873	0.782	0.798			0.839	0.611	0.54	0.515	0.534	0.598	0.499	0.448	0.511	0.515	0.952	0.505
NCI-H2405	1.03	1.01	1.01	0.764	0.709	0.655	0.64	0.587	0.558	0.221	0.189	0.178	0.204	0.276	0.985	0.854	0.997	0.88	0.902	0.932
LCLC-97TM1	0.935	0.899	0.918	0.767	0.204	0.193	0.177	0.167	0.171	0.8	0.887		0.889	0.944	0.696		0.555	0.553		0.77
NCI-H596	0.87	0.703	0.684	0.402	0.894	0.883	0.618	0.526	0.517	0.673	0.53	0.493	0.707	0.545	1.01	0.817	0.947	1	0.355	0.105
NCI-H727	0.831	0.737	1.32	0.437	0.376	0.37	0.367	0.382	0.33	0.468	0.419		0.454	0.498	1.01			0.864	0.634	0.623
H3255	1.02	0.845	0.833	0.708	0.618	0.561		0.464	0.516	0.385	0.369	0.309	0.331	0.428	0.811	0.536	0.796	0.883	0.727	0.61
NCI-H1437	1.31	1.19	1.27	0.963	0.466	0.527	0.526	0.372	0.424	0.399	0.349		0.331	0.514	0.575	0.378	0.431	0.515	1.08	0.451
LU99A	0.881	0.702	0.487	0.223	0.574	0.453	0.483	0.277	0.224	0.46	0.634	0.606	0.546	0.655	1.17	1.33	1.16	1.11	0.245	1.15
HCC-827	0.991	0.948		0.62	0.543	0.603		0.359	0.318	0.393	0.38	0.306	0.421	0.301	1.06	0.994	0.886	0.951	0.594	1.04
HCC-366	0.948	0.812	0.197	0.0559	0.279	0.114	0.0617	0.0278	0.0741	0.591	0.606	0.297	0.599	0.588	1.07	0.955	0.98	1.02	0.073	1.02
BEN	0.631	0.682	0.794	0.609	0.944	0.853	1.06	1.03	0.794	0.308	0.269	0.233	0.353	0.295	0.888	0.492	0.73	0.609		0.984
NCI-H23	0.891	1.01	0.831	0.706	0.354	0.399	0.426		0.363	0.784	0.95	0.571	0.8	0.772	1.02		1.1	1.08	0.791	1.11
201T	1.14	1.13	1.02	0.73	0.769	0.687	0.736	0.653	0.631	0.588	0.551	0.581	0.528	0.534	1.13	1.1	1.11	1.08	0.636	1.08
